Measured values from patent US6391505B1, “Phthalocyanine crystal and its production, and electrophotosensitive material using the same” (Kyocera Mita Corporation, priority 1999, dated 2002).

Tests used:
[1] = Reduction potential of organic acceptor compound by cyclic voltammetry; format: physicochemical; settings: for Reduction potential [V] of organic acceptor: organic acceptor added when producing the phthalocyanine crystal, reference electrode (Ag+/Ag); for Reduction potential [V] / Redox potential: organic acceptor; for Reduction Potential: to reference electrode (Ag+/Ag), cyclic voltammetry in dichloromethane
Procedure: The reduction potential of the organic acceptor compound was determined by a cyclic voltammetry. The measurement conditions are shown below.
Work electrode: glassy carbon
Counter electrode: platinum
Reference electrode: silver/silver nitrate (0.1 mol/1AgNO3-acetonitrile solution)
Electrolyte: tetra-n-butylammonium perchlorate (0.1 mol)
Specimen: acceptor compound (0.001 mol)
Solvent: dichloromethane (1 L)

[2] = Solubility of organic acceptor compound in tetrahydrofuran (solvent of coating solution); format: physicochemical; settings: for Solubility / Solubility/THF [% by weight]: THF; for Solubility/THF [% by weight]: organic acceptor; for Solubility/THF [% by weight] of organic acceptor: in THF
Excerpt: Specific examples of the organic acceptor compound are shown below.

Compound	Reduction potential [V] of organic acceptor ([1]; Table 3) [V]	Reduction potential [V] of organic acceptor ([1]; Table 5) [V]	Reduction potential [V] ([1]; Table 1)	Reduction potential [V] ([1]; Table 2)	Redox potential ([1]; Table 4)	Redox potential ([1]; Table 6)	Reduction Potential [1] [V]	Solubility [2] [% by weight]	Solubility/THF [% by weight] ([2]; Table 1)	Solubility/THF [% by weight] ([2]; Table 2)	Solubility/THF [% by weight] ([2]; Table 4)	Solubility/THF [% by weight] ([2]; Table 6)	Solubility/THF [% by weight] of organic acceptor ([2]; Table 3) [% by weight]	Solubility/THF [% by weight] of organic acceptor ([2]; Table 5) [% by weight]
O=C1C(Oc2ccccc2)=C(Oc2ccccc2)C(=O)c2ccccc21 [AC-1]	−0.95	−0.95	−0.95	−0.95	−0.95	−0.95	−0.95	3	3	3	3	3	3	3
CC(C)(C)C1=CC(=C2C=C(C(C)(C)C)C(=O)C(C(C)(C)C)=C2)C=C(C(C)(C)C)C1=O [AC-2]	−0.85	−0.85	−0.85	−0.85			−0.85	3	3	3			3	3
O=C1c2ccc3c4c(ccc(c24)C(=O)N1C1CCCCC1)C(=O)N(C1CCCCC1)C3=O [AC-3]	−0.85	−0.85	−0.85	−0.85			−0.85	1	1	1			1	1
O=C1NC(=O)c2ccccc21 [AC-4]	−1.28	−1.28	−1.28	−1.28			−1.28	3	3	3			3	3
O=C1OC(=O)c2ccccc21 [AC-5, reference compound]					−1.53	−1.53	−1.53	5			5	5		
O=C(c1ccccc1)c1ccccc1 [AC-6, reference compound]					−1.32	−1.32	−1.32							
Cc1ccc(C(=O)c2ccc(C)cc2)cc1 [AC-8, reference compound]					−1.31	−1.31	−1.31	11			11	11		
